Values after ≈ are worked out from the molar mass of the structure shown. Read-outs that look alike come from different tables or passages of the source.
How the values were obtained:
Format in all cases: cell-based
[1] = tested on: Candida albicans; assay: Minimum inhibitory concentration (MIC100), CLSI M38-A2 broth dilution
Method: Several strains of Aspergillus flavus, Aspergillus fumigatus, and Candida albicans were tested. Trichophyton rubrum MYA4498 and T. mentagrophytes MYA4439, the QC isolates approved by the Clinical and Laboratory Standards Institute (CLSI) for dermatophyte susceptibility testing, can also be tested.
(§1) MIC testing was performed according to the CLSI M38A2 standard for the susceptibility testing of dermatophytes developed at the Center for Medical Mycology (See, Ghannoum et al., 2004, J Clin Microbial. 42(7): 2977-2979 CLSI, Reference Method for Broth Dilution Antifungal Susceptibility Testing of Filamentous Fungi: Approved Standard-Second Edition. CLSI document M38-A2 [ISBN 1-56238-668-9]. CLSI, 940 West Valley Road, Suite 1400, Wayne, Pa. 19087-1898 USA, 2008). Briefly, RPMI was the test medium, incubation temperature and time was 35° C. and 24 hours or 48 hours, respectively, and the inoculum size was 1-3×10^3 conidia/ml. The MIC endpoint was 100% inhibition as compared to the growth control.
The MIC range, MIC100 (defined as the minimum concentration required to inhibit 100% of the isolates tested), for the antifungal preparations of the invention and comparators was computed. The MFC range, MFC50, MFC90, and MFC100 for the antifungal preparations of the invention and comparators can also be computed.
Similarly, the lowest concentration (μg/mL) of a fluconazole formulation of the invention was compared to flucanozole alone that is required to inhibit 100% growth of various isolates of Candida albicans (MIC100) was determined (see Table 14). In this example, the fluconazole formulation of the invention comprises fluconazole formulated with a phosopholipid and a surfactant.

[2] = tested on: Aspergillus fumigatus; assay: MIC100 of voriconazole and terbinafine formulation individually and in combination, FICI; settings: for MIC100, Combination: concentration of the agent when voriconazole and terbinafine formulation are used in combination; for MIC: Aspergillus fumigatus, agent used individually, read-out: MIC100, Individual
Method: as §1
(§2) The lowest concentration (μg/mL) of either a terbinafine formulation of the invention or voriconazole, when used in combination, that is required to inhibit 100% of various isolates of Aspergillus flavus and Aspergillus fumigatus (MIC100) was determined (see Table 15). In this example, the terbinafine formulation of the invention comprises terbinafine formulated with a phospholipid and a surfactant.
(§3) Depicted in Table 15, the Fractional Inhibitory […] Index (FWD measures the degree of interaction between the two antifungal agents. A FICI value of greater than 4 indicates an antagonistic interaction; a FICI value of between 0.5 and 4 indicates no interaction; and a FICI value of less than 0.5 indicates a synergistic interaction. As depicted in Table 15, a lower concentration of either voriconazole or terbinafine formulation is generally able to inhibit 100% growth of various isolates of Aspergillus fumigatus and Aspergillus flavus when both antifungal agents are used in combination than the concentration required to inhibit 100% growth of various isolates of Aspergillus fumigatus and Aspergillus flavus when either voriconazole or terbinafine formulation is used individually.

[3] = tested on: Aspergillus flavus; assay: as above; settings: for MIC100, Combination: concentration of the agent when voriconazole and terbinafine formulation are used in combination; for MIC: Aspergillus flavus, agent used individually, read-out: MIC100, Individual
Method: as §1, §2, §3

[4] = A. fumigatus strain MRL No. 2456
[5] = A. fumigatus strain MRL No. 2471
[6] = A. fumigatus strain MRL No. 2574
[7] = A. fumigatus strain MRL No. 16627
[8] = A. fumigatus strain MRL No. 16629

## OC(Cn1cncn1)(Cn1cncn1)c1ccc(F)cc1F [Flucanozole, fluconazole]
[1]; C. albicans strain MRL No. 648
  MIC: > 64 µg/mL
[1]; C. albicans strain MRL No. 9650
  MIC: > 128 µg/mL
[1]; C. albicans strain MRL No. 9698
  MIC: 32 µg/mL (≈ 104 µM)
[1]; C. albicans strain MRL No. 14461
  MIC: 0.25 µg/mL (≈ 0.816 µM)
[1]; C. albicans strain MRL No. 14465
  MIC: 0.25 µg/mL (≈ 0.816 µM)

## C[C@@H](c1ncncc1F)[C@](O)(Cn1cncn1)c1ccc(F)cc1F [Voriconazole, voriconazole]
[2]; [4]
  MIC100, Combination: 0.06 µg/mL
  MIC: 0.12 µg/mL
[2]; [5]
  MIC100, Combination: 0.06 µg/mL
  MIC: 0.25 µg/mL
[2]; [6]
  MIC100, Combination: 0.06 µg/mL
  MIC: 0.25 µg/mL
[2]; [7]
  MIC100, Combination: 0.03 µg/mL
  MIC: 0.5 µg/mL
[2]; [8]
  MIC100, Combination: 0.03 µg/mL
  MIC: 0.12 µg/mL
[3]; A. flavus strain MRL No. 17842
  MIC100, Combination: 0.12 µg/mL
  MIC: 0.25 µg/mL
[3]; A. flavus strain MRL No. 18736
  MIC100, Combination: 0.12 µg/mL
  MIC: 0.5 µg/mL
[3]; A. flavus strain MRL No. 18743
  MIC100, Combination: 0.12 µg/mL
  MIC: 0.5 µg/mL
[3]; A. flavus strain MRL No. 18744
  MIC100, Combination: 0.03 µg/mL
  MIC: 0.8 µg/mL

Source: patent publication US20120245107A1, “METHODS OF REDUCING THE PROLIFERATION AND VIABLILITY OF MICROBIAL AGENTS” (Targeted Delivery Technologies Limited, priority 2009, published 2012)
